Tests used:
IgM [1] = experiment: IgM production by SLE patient PBMC (ELISA); conditions: Homo sapiens, read-out: IgM IC50 (nM) SLE (n = 3)
Method: (§1) Supernatants (from section 8.2.3) were harvested and analyzed by ELISA for IgG and IgM production (ZeptoMetrix Corp. Buffalo, N.Y.).
(§2) B Cell Differentiation Protocol: Enriched B cells were isolated from fresh buffy-coat (leukocyte enriched units) by Ficoll-Hypaque density gradient centrifugation followed by incubation with EasySep negative selection human B cell enrichment kit (Stem cell technologies). In brief, 2×10^8/ml PBMC were mixed with 4 ml of Robosep buffer and transferred to a 14 mL polystyrene round bottom tube. EasySep Human B cell enrichment cocktail (200 μL) was added per tube, vortexed and incubated at room temperature for 10 minutes. […] After cells were counted, an aliquot was removed for FACS analysis and the remaining cells were used for culture. […]
(§3) CD19+ peripheral blood human B cells from normal donors, or total peripheral blood mononuclear cell PBMC for patients with systemic lupus erythematosus (“SLE”), were cultured in the presence of interleukin (“IL”)-2, IL-10, IL15, TLR9 agonist, and CD40 L for 4 days, followed by IL-2, IL-6, IL-10 and IL-15 for another 3 days. Cells were counted, viability assessed, and expression of CD20, CD38, CD44, and CD83 were measured by flow cytometry. Plasmablast lineage factors IRF-4, BLIMP-1, XBP-1, and IgJ, and germinal center markers PAX-5 and BCL-6 were measured by qRT-PCR. […] Secreted immunoglobulins IgG and IgM were measured by ELISA.

[2] = system: BCL-6, IRF-4, BLIMP-1, PAX5 and XBP-1; experiment: Transcription factor protein expression by intracellular flow cytometry, normal B cell differentiation; type: cell-based, human
Method: Immunophenotyping For Flow Cytometric Analysis: Cells were stained using multicolor direct immunofluorescence stain for flow cytometric analysis. Surface staining was performed before cell fixation and permeabilization. Cells (50 μl; 1×10^6 cells/ml in washing buffer, 2% FBS with 0.1% NaN3 in PBS) were used for each staining. The cells were stained with isotype control mAb ([…]) and multicolor FITC-conjugated anti-CD20 mAb and PE-conjugated anti-CD38 mAb, or PerCP-Cy5.5 conjugated anti-CD44 mAb, PE-conjugated anti-CD83 mAb were used for day 4 activated B cells (CD20+CD38-cells), and day 4 PBs and day 7 PBs (CD20-CD38+), and other staining, analyzed by flow cytometry as per manufacturer's instructions. The intracellular staining of transcription factor proteins (BCL-6, IRF-4, BLIMP-1, PAX-5 and XBP-1) and IgJ was performed according to the manufacturer's recommendations. Flow cytometric analysis was performed with a FACSCanto using FACSDiva 6 (BD Biosciences). For data analysis, Flowjo (Tree Star) software was used.
B cells were cultured as described in above and cells were harvested at day 4, day 7 for immunofluoresence staining. The cells were first stained for CD20 and CD38, and after cell permeabilization, stained for BCL-6, IRF-4, BLIMP-1, PAX5 and XBP-1, then were analyzed by gating on whole lymphocytes.

DBA/2 mice = experiment: Bleomycin-induced dermal fibrosis mouse model (regression of established fibrosis); type: in vivo; conditions: 30 mg/kg, PO, QD
Method: DBA/2 mice were used in this study. Eight animals were used per treatment group in the study. Mice were kept in the animal house under standard conditions with food and water ad libidum.
The compound was suspended, not dissolved, in this vehicle. The formulation was homogenized with a Teflon pestle and mortar (Potter-Elvehjem tissue grinder) using a motorized Eberbach tissue homogenizer. The daily drug stock concentration used in these studies was 3 mg/ml.
Bleomycin was obtained from the pharmacy of the University of Erlangen-Nuremberg and freshly prepared once a week. Skin fibrosis was induced in 6-week-old DBA mice by local intracutaneous injections of 100 μl of bleomycin dissolved in 0.9% NaCl, at a concentration of 0.5 mg/ml, every other day in defined areas of 1.5 cm^2 on the upper back.
To evaluate regression of fibrosis, a modified model of bleomycin induced dermal fibrosis was used. Mice were pre-challenged with bleomycin to induce a robust skin fibrosis. One group received treatment with the test compound, while challenge with bleomycin was ongoing for additional three weeks. The outcome of this group was compared to mice challenged with bleomycin for six weeks (prevention of further progression) and to mice challenged with bleomycin for three weeks followed by NaCl for additional three weeks (induction of regression). The following groups were used in the regression study: • Control group: Intradermal injection of NaCl for six weeks. Control treatment consisted of administration of the vehicle. • Untreated bleomycin group 1 (regression): Intradermal injection of bleomycin for three weeks followed by intradermal injections of NaCl for another three weeks. Treatment consisted of administration of the vehicle. […]
Dermal thickness was determined by staining with hematoxylin and eosin and activated fibroblasts by using immunohistochemistry for alpha smooth muscle actin (α-SMA). The dermal thickness, as determined by the modified Rodnan Skin Score, is currently the most common primary outcome in human clinical trials for anti-fibrotic agents in SSc. […] Dermal thickness was analyzed with a Nikon Eclipse 80i microscope (Nikon, Badhoevedorp, The Netherlands) by measuring the maximal distance between the epidermal-dermal junction and the dermal-subcutaneous fat junction at 4 different skin sections in each mouse. […]
For quantification of myofibroblasts, skin sections were deparaffinized and incubated with 5% bovine serum albumin for 60 minutes. Cells positive for α-SMA were detected by incubation with monoclonal anti-α-SMA antibodies (clone 1A4; Sigma-Aldrich, Steinheim, Germany) for 2 hours at room temperature followed by incubation with 3% hydrogen peroxide for 10 minutes. […]

IgG [3] = experiment: IgG production by SLE patient PBMC (ELISA); conditions: Homo sapiens, read-out: IgG IC50 (nM) SLE (n = 3)
Method: as §1, §2, §3

IgG [4] = experiment: IgG production in normal B cell / PBMC differentiation cultures (ELISA); conditions: Homo sapiens
Method: (§4) Step 1—B cell Activation—day 0 through day 4: Prepare fresh B cell cocktail by adding 50 μg/mL of human transferrin to B cell media. (Iscoves+10% PFBS, 1% P/S, and 5 μg/mL human insulin). […] Five milliliters (1×10^5/ml) of CD19+ B cell were added to each well of a 6 well flat-bottom plate (final cell count=5×10^5/well). Five L (lx)±compound/DMSO was added to each test well (0.1% final DMSO) and incubated at 37° C. for 4 days.
(§5) Step 2—Plasmablast Generation—day 4 through day 7: Cells were harvested and counted on the cell counter; an aliquot was removed for flow analysis, the remaining cells were washed with PBS. Prepare fresh B cell cocktail by adding 1 μg/ml of human transferrin to B cell media. […] Add B cell differentiation cocktail (final concentration): recombinant human IL-2 (20 U/mL), IL-10 (50 ng/mL), IL-15 (10 ng/mL), IL-6 (50 ng/mL) to cells. Add fresh B cell cocktail and transfer cells back to the original wells and bring volume back to 5 mL. Five L (1×)±compound/DMSO was added to each test well (0.1% final DMSO) and incubated at 37° C. for 4 days.
as §1
(§6) The data was graphed using GraphPad Prism 5.0 software.
IgM and IgG were measured by ELISA.

[5] = system: IRF4, BLIMP1, XBP1, PAX5, IgJ; experiment: B and plasma cell transcription factor gene expression (RT-PCR), normal B cell differentiation culture; type: cell-based, human
Method: Differentiated B cells (see section 8.2.3) were harvested for total ribonucleic acid (RNA) preparation with a Qiacube RNA extraction instrument (Qiagen, Valencia, Calif.) using QIAGEN RNeasy mini spin-column kits. Purified RNA was reverse transcribed into cDNA with thermal cycler [MJ Research; Inc., St. Bruno, Quebec, Canada) using a reverse-transcriptase kit (Applied Biosystems). The gene expression assay was carried out using 7500 RT-PCR system (Applied Biosystems) in triplicate. A glyceraldehyde 3-phosphate dehydrogenase gene expression assay control was run for each sample and used as a normalization control. For each gene, samples within each experiment were normalized to 0.1% DMSO treatment only for that particular time point.

MRL/MpJ-Faslpr/J mouse = MRL/MpJ-Faslpr/J mouse model of systemic lupus erythematosus; type: in vivo; conditions: 30 mg/kg; week 4
H929 cells = experiment: H929 cell cycle (S-phase) and survivin, pRB, p27 expression; type: cell-based
IgM [6] = experiment: IgM production in normal PBMC differentiation cultures (ELISA); conditions: Homo sapiens, read-out: IgM IC50 (nM) Normal (n = 3)
Method: as §4, §5, §1, §6
IgM and IgG were measured by ELISA.

## O=C1CC[C@H](N2Cc3c(OCc4ccc(CN5CCOCC5)cc4)cccc3C2=O)C(=O)N1 [Test compound, (S)-3-[4-(4-morphlin-4-ylmethylbenzyloxy)-1-oxo-1,3-dihydro-isoindo-2-yl]piperidine-2,6-dione]
IgM [1]
  IC50: 0.9 nM
[2]; Day 4, 20 nM
  BLIMP-1 protein expression: significantly decreased
  IRF-4 protein expression: significantly decreased
  XBP-1 protein expression: significantly decreased
[2]; Day 7, 20 nM
  BCL-6 protein expression: significantly increased
DBA/2 mice
  dermal thickening: no effect
  numbers of myofibroblasts: did not have an effect
IgG [3]
  IC50: 3.2 nM
IgG [4]; B-cell, read-out: secreted IgG production IC50
  IC50: 1.8 nM
IgG [4]; PBMC, read-out: IgG IC50 (nM) Normal (n = 3)
  IC50: 2.1 nM
IgG [4]; read-out: IgG production IC50
  IC50: 1.8 nM
[5]
  B cell transcription factor PAX5: enhanced
  expression of plasma cell transcription factor BLIMP1: dose-dependently inhibited
  expression of plasma cell transcription factor RF4: dose-dependently inhibited
  expression of plasma cell transcription factor XBP1: dose-dependently inhibited
[5]; day 7, 20 nM, qRT-PCR
  BLIMP-1 gene expression: 14.3 % of control
  IRF-4 gene expression: 20.5 % of control
  IgJ gene expression: 31.5 % of control
  XBP-1 gene expression: 15.1 % of control
MRL/MpJ-Faslpr/J mouse
  Splenic B cells, increase: 37%
  anti-double stranded DNA autoantibody level, decrease: 25%
  peripheral blood B cells: no change
H929 cells; 24 hours of treatment
  decrease in cell cycle (S-phase): 50%
H929 cells; 48 hours
  expression of cyclin-dependent kinase inhibitor p27: increased expression
  expression of retinoblastoma protein (pRB): decreased expression
  expression of survivin: decreased expression
IgM [6]
  IC50: 0.35 nM

Source: patent US11524950B2, “Treatment of immune-related and inflammatory diseases” (Celgene Corporation, priority 2012, dated 2022)
